Entries after “also recorded” stand apart in the source; their conditions may differ. Ends that are not written are not given here.
Tests used:
C57BL/6 mice [1] = assay: In vivo luciferase imaging after retro-orbital injection of AAV8/luc with peptides; design: species or system mouse
Description: (§1) Animal study. […] Mice were administered with AAV8/Luc incubated with peptides via retro-orbital injection. Luciferase expression was imaged at the indicated time points using a Xenogen IVIS Lumina (Caliper Lifesciences, Waltham, MA) following intraperitoneal injection of D-luciferin substrate (Nanolight Pinetop, AZ). Bioluminescent images were analyzed using Living Image (PerkinElmer, Waltham, MA). At various time points after injection, blood was collected from the retro-orbital plexus, and the viral titers were tested by qPCR.

Huh7 cells = assay: AAV8 binding assay; assay type: cell-based, human; details: 4° C., 1 h; genome copy number normalized to GAPDH
Description: AAV8 binding assay. The complex of AAV8/luc and THR or human apo-transferrin protein (Sigma, 616395, USA) was incubated at 4° C. for 2 h, 10000 vg AAV8/luc virus alone or the complex was added into Huh7 cells at a cell density of 4E+05 per well for 1 h at 4° C., and then washed with DPBS 3 times. Finally, genome DNA (gDNA) was extracted from the cells with the DNeasy blood & tissue kit (Qiagen, USA) and was quantified by qPCR with luciferase primers and reference GAPDH primers.

C57BL/6 mice [2] = assay: Measurement of AAV genome copy number in tissue; assay type: in vivo, mouse
Description: Measurement of AAV genome copy number in tissue. Total gDNA from different minced tissues was isolated with the DNeasy blood & tissue kit (Qiagen, USA). Luciferase gene was measured by qPCR assay. Mouse-lamin gene served as an internal control.

C57BL/6 mice [3] = details: 1E+11 vg each mouse, intravenous; 5 min to 48 h; vs AAV8/luc
Description: as §1

Huh7 or HEK293 cells = assay: Neutralization assay (Nab titer); assay type: cell-based, human; details: THR at different concentrations
Description: Neutralization assay. Huh7 or HEK293 cells were seeded in 48-well plates with a density of 5E+04 cells each well. The complex of AAV8/luc and different concentrations of THR was incubated at 4° C. for 2 h, then, two-fold dilutions of the mouse AAV8 sera were incubated with 1E+04vg of AAV8/luc virus or the complex of AAV8/luc and THR per cell for 1 h at 37° C. The final mixture was added into cells and incubated at 37° C. for 48 h. Cells were lysed with passive lysis buffer (Promega, Madison, WI) and luciferase activity was measured. Nab titers were defined as the highest dilution for which luciferase activity was 50% lower than serum-free controls.

[4] = tested on: human transferrin binding to AAV8 virions; assay: AAV8 competitive binding assay; details: pre-incubation with AAV8, then human transferrin; pull down with transferrin antibody, qPCR
Description: AAV8 competitive binding assay. For THR competitive binding analysis, 10 ul of Protein G resin (Thermo, USA) per system was incubated with 1 ug of human transferrin antibody or goat IgG antibody control at 4° C. overnight. […] After that, the mixture was added to the complex of protein G resin and transferrin antibody and incubated at 4° C. overnight. Finally, the complex was stringently washed three times with cold DPBS. DNA from the complex was extracted and applied for qPCR to determine AAV genome copy number per cell using luc specific primers.
To investigate whether THR also binds to the same location of AAV8 virions as human serum proteins, we performed a competitive assay. […] The transferrin antibody was used to pull down transferrin bound AAV8 virions and AAV8 gene copy number was measured by qPCR.

C57BL/6 mice [5] = assay: Quantitation of luciferase expression in tissues; assay type: in vivo, mouse
Description: Quantitation of luciferase expression in tissues. Animals utilized for imaging studies were sacrificed after one-week post imaging work, and the tissues of the heart, liver, spleen, skeletal muscle and brain were collected, and were minced and homogenized in passive lysis buffer. Then the lysates were centrifuged at 10,000 rpm for 5 minutes to remove cellular debris. Supernatant was transferred to 96-well plates for luciferase activity analysis as described above. Total protein concentration in tissue lysates was measured using the Bradford assay (Bio-Rad Laboratories, Philadelphia, PA).

mouse TfR1 = target: T1, mouse TfR1 (Mus musculus, UniProt Q62351); assay: Immunofluorescence assay on CHO-TRVB cells; assay type: binding; details: 5-FAM-THR
T1 construct: expressed in transfected cells; host or cells: CHO-TRVB cells (devoid of endogenous TfR1)
Description: Immunofluorescence. Plasmids mCherry-TFR-20 and mCherry-mTfR-20 were separately transfected into the 50-70% confluent CHO-TRVB cells grown on glass coverslips using lipofectamine 3000 reagent (Invitrogen, USA). After 48 h post-transfection, the coverslips were washed and incubated with 1 nM 5-FAM-THR at 37° C. for 1 h, then cells were acid-washed with 0.2 M glycine/HCl, pH 2.2, and fixed in 4% paraformaldehyde for 30 min at 4° C. Finally, DAPI was used at a 1:5,000 dilution for 5 min at RT. Coverslips were mounted and imaged on the Olympus IX-83 fluorescence microscope.

[6] = AAV9 brain transduction with THR after systemic administration; assay type: in vivo
[7] = tested on: HEK293 cells or Huh7 cells; assay: In vitro transduction assay, AAV8/luc with peptides; assay type: cell-based, human; details: 10000 vg AAV8/luc incubated with peptides 2 h at 4° C.; both cell lines; 48 h; vs AAV8 only
Description: In vitro transduction assay. At least 4-5 h prior to AAV transduction, cells were seeded in 48-well plates with a density of 1E+05 cells each well. Cells were infected with 1E+04 vector genomes (vg) of AAV8/luc virus per cell and harvested after 48 h. Luciferase activity was measured following manufacturer's instruction (Promega, Madison, WI).
The complex of AAV8 and peptides influences AAV8 transduction in vitro and in vivo. To identify the potential and functional peptides that enhanced AAV8 transduction, we screened several reported peptides as shown in Table 5 and Table 6. First, we tested the cytotoxicity of peptides at different concentrations on cells. […] After that, we performed the transduction assay in vitro. We incubated the 10000 vg AAV8/luc and peptides for 2 h at 4° C., and then applied the mixture to HEK293 cells or Huh7 cells. After 48 h, the cell lysate was collected for luciferase analysis.

T1 sequence (Q62351 whole entry): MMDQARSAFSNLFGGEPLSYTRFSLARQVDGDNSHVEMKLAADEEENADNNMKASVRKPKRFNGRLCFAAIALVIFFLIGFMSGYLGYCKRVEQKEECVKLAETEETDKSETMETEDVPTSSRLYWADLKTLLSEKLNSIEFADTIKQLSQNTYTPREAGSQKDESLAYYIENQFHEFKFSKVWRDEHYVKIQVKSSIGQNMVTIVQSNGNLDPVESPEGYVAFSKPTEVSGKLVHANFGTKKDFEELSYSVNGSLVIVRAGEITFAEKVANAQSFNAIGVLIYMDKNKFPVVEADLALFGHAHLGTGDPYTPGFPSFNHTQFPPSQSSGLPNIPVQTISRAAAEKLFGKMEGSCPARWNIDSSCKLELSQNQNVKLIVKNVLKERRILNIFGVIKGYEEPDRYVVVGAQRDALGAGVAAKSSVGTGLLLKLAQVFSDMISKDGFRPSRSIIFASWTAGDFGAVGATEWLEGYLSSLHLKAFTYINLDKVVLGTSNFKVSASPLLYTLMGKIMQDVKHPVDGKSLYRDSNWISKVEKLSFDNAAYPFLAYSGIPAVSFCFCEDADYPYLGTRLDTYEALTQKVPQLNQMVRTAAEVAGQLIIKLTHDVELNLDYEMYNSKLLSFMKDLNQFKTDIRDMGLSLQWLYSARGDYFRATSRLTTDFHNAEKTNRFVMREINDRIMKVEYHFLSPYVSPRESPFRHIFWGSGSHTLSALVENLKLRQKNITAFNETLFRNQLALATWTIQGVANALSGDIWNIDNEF

For THRPPMWSPVWP-NH2 [THR], the “AAV8 transduction in the whole body, especially brain (imaging)” value (C57BL/6 mice [1]; 0.1 mM peptide + 5E+10 vg AAV8/luc, 7th day) was “significantly increased AAV8 transduction overall; also recorded: significantly enhances AAV8 transduction in vivo, especially in the brain”, the “transgene expression in the liver (imaging)” value (C57BL/6 mice [1]; 0.1 mM peptides + 5E+10 vg AAV8/luc, retro-orbital vein, 7th day) was “higher” and the “AAV8 transduction in whole body and brain (imaging), high dose” value (C57BL/6 mice [1]; 1E+11 vg each mouse, AAV8-0.1 mM THR) was “enhanced the AAV8 transduction in both the whole body and the brain”. The “AAV8 liver transduction (imaging), THR mixed just before injection” value (C57BL/6 mice [1]; AAV8/0.1 mM THR, no pre-incubation) was “blocked AAV8 liver transduction”, the “luciferase imaging signal, dose dependence” value (C57BL/6 mice [1]; different concentrations of THR + 5E+10 particles AAV8/luc) was “stronger imaging signals; also recorded: enhances the AAV8 transduction in vivo in a dose-dependent manner” and the “AAV8 virions binding to the Huh7 cells surface” value (Huh7 cells) was “dramatically increased AAV8 virions binding; also recorded: enhanced the binding ability of AAV8 dose dependently”. For the same substance, the “AAV genome copy number in the brain” value (C57BL/6 mice [2]; 0.1 mM peptides + 5E+10 vg AAV8/luc, vs AAV8 only) was “much higher”, the “gene copy number in liver, brain and spleen” value (C57BL/6 mice [2]; three groups with different THR concentrations + 5E+10 particles AAV8/luc) was “significantly higher enhancement than the control group; also recorded: more vector genome copy number in the brain” and the “blood clearance of AAV8” value (C57BL/6 mice [3]) was “decreasing the AAV8 clearance in the blood”. For the same substance, the “AAV8/luc neutralization titer (Nab titer)” value (Huh7 or HEK293 cells) was “did not interfere with the AAV8/luc neutralization titer; also recorded: does not interfere with the AAV8 biology”, the “inhibition of transferrin binding to AAV8” value [4] was “competes with human transferrin binding to AAV8” and the “AAV8 brain transduction (luc expression and genome number)” value (C57BL/6 mice [5]; 0.1 mM peptides + 5E+10 vg AAV8/luc) was “increased AAV8 transduction in the brain”. The “luciferase expression and virus distribution in the brain, THR mixed just before injection” value (C57BL/6 mice [5]; AAV8/0.1 mM THR, no pre-incubation, vs AAV8) was “did not observe a significant difference”, the “interaction with mouse TfR1” value (mouse TfR1) was “could interact with mouse TfR1” and the “AAV9 brain transduction after systemic administration” value [6] was “failed to enhance AAV9 brain transduction”. The “AAV8 transduction (luciferase)” value [7] was “significantly enhanced AAV8 transduction; also recorded: the most significant increase of AAV8 transduction”.

From patent US12281335B2, “Methods and compositions for delivery of viral vectors across the blood-brain barrier” (priority 2017, dated 2025)
